In US20250163043A1 (TRANSTHERA SCIENCES (NANJING), INC., priority 2021, published 2025) one finds IC50 data, which are given here for 25 compounds.

The target in one experiment is CDK9/CycT1 (Homo sapiens, UniProt P50750). As to the kind of experiment: ADP-Glo kinase assay on CDK enzymatic activity, CDK9/CycT1. Format: biochemical. The settings on record: 10 concentrations from 10 μM, 4-fold, 60 min room temperature. The method in brief: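 Compounds were tested as 10-point, 4-fold dilutions from 10 μM final, preincubated 10 min at room temperature with kinase, then reacted 60 min with CDK tide substrate and ATP. ADP formed was detected by ADP-Glo luminescence; inhibition was normalised to 1 μM AZD4573 and 0.5% DMSO controls and IC50 fitted.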
CDK9/CycT1, sequence (P50750 whole entry): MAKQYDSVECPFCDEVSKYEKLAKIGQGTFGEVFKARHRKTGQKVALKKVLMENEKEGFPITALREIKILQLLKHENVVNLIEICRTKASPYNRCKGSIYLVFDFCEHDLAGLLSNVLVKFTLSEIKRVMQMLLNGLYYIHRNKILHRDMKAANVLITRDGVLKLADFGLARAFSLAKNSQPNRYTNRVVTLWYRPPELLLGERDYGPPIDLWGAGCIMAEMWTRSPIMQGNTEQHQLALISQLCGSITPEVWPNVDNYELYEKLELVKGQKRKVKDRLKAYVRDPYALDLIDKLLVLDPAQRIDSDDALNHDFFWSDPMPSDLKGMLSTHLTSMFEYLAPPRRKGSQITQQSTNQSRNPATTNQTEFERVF
CDK9/CycT1, sequence (O60563 whole entry partner): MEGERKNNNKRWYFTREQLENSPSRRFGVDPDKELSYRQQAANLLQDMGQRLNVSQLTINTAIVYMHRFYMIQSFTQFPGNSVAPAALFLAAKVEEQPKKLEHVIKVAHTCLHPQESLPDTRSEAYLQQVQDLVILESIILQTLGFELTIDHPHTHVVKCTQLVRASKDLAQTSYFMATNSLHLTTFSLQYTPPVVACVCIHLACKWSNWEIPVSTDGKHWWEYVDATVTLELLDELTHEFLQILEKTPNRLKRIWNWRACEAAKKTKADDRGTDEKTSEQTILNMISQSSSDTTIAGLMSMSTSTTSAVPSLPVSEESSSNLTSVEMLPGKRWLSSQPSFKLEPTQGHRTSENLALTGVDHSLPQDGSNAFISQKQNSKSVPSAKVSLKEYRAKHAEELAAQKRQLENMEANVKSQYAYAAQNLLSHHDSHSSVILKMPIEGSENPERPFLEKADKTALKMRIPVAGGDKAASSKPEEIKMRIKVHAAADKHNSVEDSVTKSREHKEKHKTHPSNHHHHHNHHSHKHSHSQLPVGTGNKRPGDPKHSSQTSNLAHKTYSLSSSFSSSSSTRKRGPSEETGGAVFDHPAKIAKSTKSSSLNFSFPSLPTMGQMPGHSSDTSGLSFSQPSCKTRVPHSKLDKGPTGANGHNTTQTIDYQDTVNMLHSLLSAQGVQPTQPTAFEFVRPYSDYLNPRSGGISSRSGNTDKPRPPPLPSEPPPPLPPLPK
Background: ADP-Glo first removes unused ATP, then detects ADP through luciferase.

In experiment [1] the test system is MV-4-11 (human myelomonocytic leukemia cells). The experiment can be described thus: CCK-8 cell proliferation assay, MV-4-11. The experiment is classed as cell-based. The settings on record: MV4-11, 24 h incubation, 11 concentrations from 5000 nM, 3-fold, read-out: MV-4-11 cell proliferation IC50 (class). On the procedure:
Test samples: the compounds of the present invention, having structures shown above.
MV-4-11 (human myelomonocytic leukemia cells) and NCI-H929 (human myeloma cells).
The compounds were dissolved in DMSO and diluted 3-fold in the 96-well plate to obtain stock solutions with 11 concentration gradients. Each cell was inoculated into a 96-well plate, and the diluted compound stock solution was added to the 96-well plate to obtain a series of 11 concentration gradients of compound solutions with final concentrations of 5000 nM starting and 3-fold gradient decreasing, wherein the final DMSO content was […]. There was a medium containing 1‰ DMSO in the negative control well. The treated cells were incubated at 37° C. with 5% CO2 and 95% humidity, wherein MV-4-11 were incubated for 24 h and NCI-H929 for 72 h. After incubation was completed, each well was added with 10 μL of CCK-8 reagent, incubated for 1-3 h at room temperature and placed in the microplate reader, and the absorbance was read at 450 nm.
The inhibition rate was calculated according to the following formula: […]
ODcmpd: compound absorbance; ODpositive: average value of the absorbance of positive control without compound; ODvehicle: average value of the absorbance of solvent vehicle control.
IC50 values were fitted using GraphPad 7.0 based on inhibition rates of compounds at different concentrations.

In the case of `CC(=O)N[C@@H]1CCC[C@H](C(=O)Nc2ncc3cc(C(F)F)nc(NC(C)C)c3n2)C1` [Compound 7, (1S,3R)-3-acetamido-N-(6-(difluoromethyl)-8-(isopropylamino)pyrido[3,4-d]pyrimidin-2-yl)cyclohexane-1-carboxamide], the IC50 at CDK9/CycT1 was 44 nM; in experiment [1] it was greater than 1000 nM. As for `C=Cc1cc2cnc(NC(=O)[C@H]3CCC[C@@H](NC(C)=O)C3)nc2c(NC(C)C)n1` [Compound 10, (1S,3R)-3-acetamido-N-(8-(isopropylamino)-6-vinylpyrido[3,4-d]pyrimidin-2-yl)cyclohexane-1-carboxamide], the figures for the IC50 (on CDK9/CycT1; in experiment [1]) were 46 nM and greater than 1000 nM, respectively. For the compound `CNc1cc2cnc(NC(=O)[C@H]3CCC[C@@H](NC(C)=O)C3)nc2c(NC(C)C)n1` [Compound 11, (1S,3R)-3-acetamido-N-(8-(isopropylamino)-6-(methylamino)pyrido[3,4-d]pyrimidin-2-yl)cyclohexane-1-carboxamide], the IC50 in experiment [1] was greater than 1000 nM. As for `COc1cc2cnc(NC(=O)[C@H]3CCC[C@@H](NC(C)=O)C3)nc2c(NC(C)C)n1` [Compound 12, (1S,3R)-3-acetamido-N-(8-(isopropylamino)-6-methoxypyrido[3,4-d]pyrimidin-2-yl)cyclohexane-1-carboxamide], the IC50 in experiment [1] is greater than 1000 nM. The same measure, in the same setting: as for `CC(=O)N[C@@H]1CCC[C@H](C(=O)Nc2cc3c(N4CCOCC4)nc(C#N)cc3cn2)C1` [Compound 21, (1S,3R)-3-acetamido-N-(7-cyano-5-morpholino-2,6-naphthyridin-3-yl)cyclohexane-1-carboxamide], the figure is greater than 1000 nM. On the same count and under the same terms, as for `CC(C)Nc1nc(C#N)cc2cnc(N[C@H]3CCC[C@@H](N)C3)cc12` [Compound 40, 7-(((1S,3R)-3-aminocyclohexyl)amino)-1-(isopropylamino)-2,6-naphthyridine-3-carbonitrile], the figure is 400 to 1000 nM; as for `CC(C)Cc1nc(C#N)cc2cnc(N[C@H]3CCCNC3)cc12` [Compound 108, (S)-1-isobutyl-7-(piperidin-3-ylamino)-2,6-naphthyridine-3-carbonitrile], 400 to 1000 nM. Consider `CC(C)Nc1nc(C#N)cc2cnc(N[C@H]3CCNC3)nc12` [Compound 112, (S)-8-(isopropylamino)-2-(pyrrolidin-3-ylamino)pyrido[3,4-d]pyrimidine-6-carbonitrile], for which the IC50 was 17 nM against CDK9/CycT1 and 400 to 1000 nM in experiment [1]. Turning to `CC(C)Nc1nc(C#N)cc2cnc(N[C@@H]3CCNC3)nc12` [Compound 113, (R)-8-(isopropylamino)-2-(pyrrolidin-3-ylamino)pyrido[3,4-d]pyrimidine-6-carbonitrile], the values for the IC50 (against CDK9/CycT1; in experiment [1]) were 9 nM and 400 to 1000 nM, respectively. The corresponding values for `CC(C)Nc1nc(C#N)cc2cnc(N[C@@H]3CCCOC3)nc12` [Compound 117, (R)-8-(isopropylamino)-2-((tetrahydro-2H-pyran-3-yl)amino)pyrido[3,4-d]pyrimidine-6-carbonitrile] are 6 nM and greater than 1000 nM. With `CC(C)Nc1nc(C#N)cc2cnc(N[C@H]3CCOC3)nc12` [Compound 118, (S)-8-(isopropylamino)-2-((tetrahydrofuran-3-yl)amino)pyrido[3,4-d]pyrimidine-6-carbonitrile], the IC50 is 12 nM against CDK9/CycT1 and greater than 1000 nM in experiment [1]. As for `CC(C)Nc1nc(C#N)cc2cnc(N[C@@H]3CCOC3)nc12` [Compound 119, (R)-8-(isopropylamino)-2-((tetrahydrofuran-3-yl)amino)pyrido[3,4-d]pyrimidine-6-carbonitrile], the figures for the IC50 (against CDK9/CycT1; in experiment [1]) were 6 nM and greater than 1000 nM, respectively. Regarding `CC(C)Nc1nc(C#N)cc2cnc(NC3CCCS(=O)(=O)C3)nc12` (centres unmarked) [Compound 121, 2-((1,1-dioxidotetrahydro-2H-thiopyran-3-yl)amino)-8-(isopropylamino)pyrido[3,4-d]pyrimidine-6-carbonitrile], the values for the IC50 (at CDK9/CycT1; in experiment [1]) were 14 nM and 400 to 1000 nM, respectively. The corresponding values for `CC(C)Nc1nc(C#N)cc2cnc(N[C@H]3CC[C@@H](O)CC3)nc12` [Compound 125, 2-(((1s,4s)-4-hydroxycyclohexyl)amino)-8-(isopropylamino)pyrido[3,4-d]pyrimidine-6-carbonitrile] are 9 nM and greater than 1000 nM. The matching figures for `CC(C)Nc1nc(C#N)cc2cnc(NC3CNC3)nc12` [Compound 129, 2-(azetidin-3-ylamino)-8-(isopropylamino)pyrido[3,4-d]pyrimidine-6-carbonitrile]: 7 nM and greater than 1000 nM. The matching figures for `CC(C)Nc1nc(C#N)cc2cnc(N[C@@H]3CCCNCC3)nc12` [Compound 132, (R)-2-(azepan-4-ylamino)-8-(isopropylamino)pyrido[3,4-d]pyrimidine-6-carbonitrile]: 12 nM and 400 to 1000 nM. For the compound `CC(C)Nc1nc(C#N)cc2cnc(N[C@H]3CC[C@@H](N)CC3)nc12` [Compound 137, 2-(((1s,4s)-4-aminocyclohexyl)amino)-8-(isopropylamino)pyrido[3,4-d]pyrimidine-6-carbonitrile], the values for the IC50 (against CDK9/CycT1; in experiment [1]) were 10 nM and greater than 1000 nM, respectively. The corresponding values for `CC(C)Nc1nc(C#N)cc2cnc(N[C@@H]3C[C@H]4COC[C@@H](C3)N4)nc12` [Compound 139, 2-(((1R,5S,7r)-3-oxa-9-azabicyclo[3.3.1]nonan-7-yl)amino)-8-(isopropylamino)pyrido[3,4-d]pyrimidine-6-carbonitrile] are 6 nM and greater than 1000 nM. Turning to `CC(C)Nc1nc(C#N)cc2cnc(NC3CCCCC3O)cc12` (centres unmarked) [Compound 143, 7-((2-hydroxycyclohexyl)amino)-1-(isopropylamino)-2,6-naphthyridine-3-carbonitrile], the IC50 was 12 nM against CDK9/CycT1 and greater than 1000 nM in experiment [1]. As for `CC(C)Nc1nc(C#N)cc2cnc(NC3CCCC3N)cc12` (centres unmarked) [Compound 146, 7-((2-aminocyclopentyl)amino)-1-(isopropylamino)-2,6-naphthyridine-3-carbonitrile], the IC50 against CDK9/CycT1 was 9 nM; in experiment [1], greater than 1000 nM.

`CC(C)Nc1nc(C#N)cc2cnc(N[C@H]3CCC[C@H]3N)cc12` [Compound 158, 7-(((1S,2R)-2-aminocyclopentyl)amino)-1-(isopropylamino)-2,6-naphthyridine-3-carbonitrile]: the IC50 at CDK9/CycT1 is 3 nM; in experiment [1] it was 400 to 1000 nM. The corresponding values for `CC(C)(C)Nc1nc(C#N)cc2cnc(NC(=O)[C@H]3CCCNC3)cc12` [Compound 177, (S)—N-(5-(tert-butylamino)-7-cyano-2,6-naphthyridin-3-yl)piperidine-3-carboxamide] are 19 nM and greater than 1000 nM. The corresponding values for `CC(C)(C)Nc1nc(C#N)cc2cnc(NC(=O)[C@@H]3CCCNC3)cc12` [Compound 178, (R)—N-(5-(tert-butylamino)-7-cyano-2,6-naphthyridin-3-yl)piperidine-3-carboxamide] are 7 nM and 400 to 1000 nM. The matching figures for `N#Cc1cc2cnc(N[C@H]3CCCNC3)cc2c(C2CC2)n1` [Compound 194, (S)-1-cyclopropyl-7-(piperidin-3-ylamino)-2,6-naphthyridine-3-carbonitrile]: 15 nM and greater than 1000 nM. As to `Cc1nc(C#N)cc2cnc(N[C@H]3CCCNC3)cc12` [Compound 196, (S)-1-methyl-7-(piperidin-3-ylamino)-2,6-naphthyridine-3-carbonitrile], in experiment [1], the IC50 was greater than 1000 nM.
